Experimental data as given in a melting point compilation (Tetko et al.; mined from patent text by program, amines drawn as free bases though some values may be those of a salt).

| melting point [°C] | SMILES |
| --- | --- |
| 205 to 207 | CNc1nc(Nc2ccc(OCCNC(=O)OC(C)(C)C)cc2)ncc1[N+](=O)[O-] |
| 194 to 197 | CN1c2ccccc2-c2nccn2-c2ccccc21 |
| 279 | Nc1cc(OCCOCP(=O)(O)O)nc(N)n1 |
| 233 | CN1C(=O)CCC(C)(C)c2cc(Nc3ncc(Cl)c(N[C@H]4[C@@H](C(N)=O)[C@@H]5C=C[C@H]4C5)n3)ccc21 |
| 75 to 79 | O=C(O)CCCCCC[C@H]1CC[C@@H](O)CC1 |
| 148 to 150 | O=S(=O)(Nc1cccnc1Nc1ccccc1)c1ccccc1 |
| 160 to 161 | Clc1cc(CCc2ccccn2)c2oc(-c3cnccn3)nc2c1 |
| 198 to 200 | CC(C)(C)c1cc2c(c(-c3nc4ncccc4o3)c1)CCC2 |
| 123 to 125 | CC(=O)N[C@@H](CSC(=O)[C@@H](C)c1ccc(CC(C)C)cc1)C(=O)O |
| 50 to 53 | CCCCCCCCCCCCCCCCN(C(=O)C(F)(F)F)c1ccc(C(=O)O)cc1 |
| 120 to 122 | O=C1CCNN1c1ccc(Cl)cc1 |
| 201 | Clc1ccc(C2(Cn3ccnc3)OCC(COc3ccc(N4CCN(c5ccc(-n6cnnn6)cc5)CC4)cc3)O2)c(Cl)c1 (centres undefined) |
| 72 to 73 | ClCc1cccc2cc(-c3ccccc3)oc12 |
| 224 to 227 | CSC(=NC#N)N1CCc2nc(NC(=N)N)sc2C1 |
| 133 to 134 | CCCc1nn(-c2ccc(C(F)(F)F)cn2)cc1CCCOc1c(CC(=O)O)cccc1OCC |
| 175 to 177 | c1ccc(COc2ncnc3nc[nH]c23)cc1 |
| 123 to 125 | CCOC(=O)C(N=Nc1sc(C)c(C)c1C(=O)c1ccccc1)NC(=O)CCl (centres undefined) |
| 104 | COc1ccc(-c2csc(Nc3cc(OC)ccc3OC)n2)cc1 |
| 114 to 115 | CCc1cc(C(C)=O)ccc1N=C1SCC2(CCCC2)N1C1CCCC1 |

| melting point [°C] | SMILES |
| --- | --- |
| 95 to 97 | COC(=O)CCCCNC(=O)C(COS(C)(=O)=O)NS(=O)(=O)c1ccc(Cl)cc1 (racemic) |
| 93 to 94 | CC1(C)CCCC(C)(C)N1CCO |
| 222 to 223 | O=C(O)Cc1c(-c2ccccc2)c2cc(Cl)c(Cl)cc2oc1=O |
| 189 to 191 | Cc1ccc(-c2c(CC(=O)O)c(C3CCCCC3)nn2-c2ccccc2)cc1 |
| 144 to 145 | O=c1[nH]c2cc(F)c(NCCCC3CCCOC3)cc2o1 (centres undefined) |
| 246 to 247 | CC(C)(C)CCC(=O)c1ccc2cc(-c3ccc4c(Br)c(OCC(=O)O)ccc4c3)sc2c1 |
| 252 to 254 | CC(C)(C)OC(=O)N1CCc2ccc(C(=O)NC3COCCn4c3nc(-c3ccncn3)cc4=O)cc2C1 (racemic) |
| 191 to 194 | O=C(c1ccc(-c2ccccc2)cc1Cl)N1CCCC(Cc2nnn[nH]2)c2ccccc21 (centres undefined) |
| 103 to 106 | CCN(CC)C(=O)n1ccc(S(=O)(=O)c2cc(Cl)cc(Cl)c2)n1 |
| 128 to 130 | O=C(N[C@H](CN1CCC(OC2c3ccccc3CCc3ccccc32)CC1)C(=O)O)OCc1ccccc1 |
| 240 to 242 | Cc1coc2ncnc(N)c12 |
| 168 | CN(C)C(=S)Oc1ccc(C(=O)c2ccc([N+](=O)[O-])cc2)cc1 |
| 201 to 203 | COc1ncc(-c2ccc3nnn(Cc4ccc5ncccc5c4)c3n2)cn1 |
| 214 to 218 | Cc1ccccc1CC(=O)Nc1ccc(C(=O)O)c(Cl)c1 |
| 192 to 193 | NS(=O)(=O)c1ccc(-c2cnn(CC3=CCCCC3)c(=O)c2-c2ccc(F)cc2)cc1 |
| > 250 | NCC1Cc2cc(-c3cccc(Cl)c3)cc(F)c2O1 (centres undefined) |
| 85 to 87 | COC(=O)c1cccc(-c2ccc(OC)c(OC3CCCC3)c2)c1 |
| 192 to 194 | Cc1nc(-c2ccc(S(N)(=O)=O)c(F)c2)c(-c2ccc(-c3cscn3)cc2)o1 |

| SMILES | melting point [°C] |
| --- | --- |
| CN(C)Cc1nnc2n1-c1ccc([N+](=O)[O-])cc1C(c1ccccc1)=[N+]([O-])C2 | 228 to 230 |
| CNc1ccccc1C(=O)CCl | 65 to 68 |
